Experimental data taken from patent US20260374766A1, “METHODS FOR TREATING CANCER” (Antares Therapeutics, Inc., priority 2022, published 2026).

Legend:
[1] = target: T1, p53 Y220C mutant protein (amino acid residues 94-293) (Homo sapiens, UniProt P04637, Y220C); assay: Thermal Shift Assay (TSA), dTM; format: binding; settings: thermal shift; for ΔTm at 100 µM: 100 uM compound, read-out: TSA P53 Y220C dTM (100 uM); for ΔTm at 10 µM: 10 uM compound, read-out: TSA P53 Y220C dTM (10 uM)
T1 construct: p53 Y220C mutant protein (amino acid residues 94-293)
Outline: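 TM is derived by fitting Sypro Orange melt curves (30 °C to 50 °C, 0.03 °C/second) to a Boltzmann two-state model. Beforehand, 5 μM p53 Y220C (94-293) sits with 10 μM or 100 μM compound for 3 hours at 20 °C in HEPES pH7.4 buffer containing 100 mM NaCl and 1% DMSO.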

[2] = target: T1, p53 Y220C mutant protein (amino acid residues 94-293); assay: Surface Plasmon Resonance (SPR) assay, Kd_kinetic; format: binding; settings: SPR, kinetic KD, p53 Y220C; read-out: SPR P53 Y220C KD kinetic
Outline: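 Temperature held at 16 or 20 °C during Biacore 8K runs. Buffer: 50 mM Tris, pH 7.5, 100 mM NaCl, 1 mM DTT, 0.01% Brij35, 0.05% Tween-20, 1% DMSO.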

NUGC3 p53 Y220C = assay: Cell Proliferation Assay (CellTiter-Glo, CTG), NUGC3 p53 Y220C; format: cell-based; settings: Homo sapiens, NUGC-3, 120 h, CellTiter-Glo, NUGC3 p53 Y220C, 5 days
Outline: (§1)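 NClH1299 lines stably transduced with Tet-inducible p53 Y220C or R273H, plus NUGC3, were treated with compound for 5 days at 250-500 cells/well. IC50 derived from CellTiter-Glo luminescent signal after 10 min room-temperature incubation.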

H1299 p53 R273H = assay: Cell Proliferation Assay (CellTiter-Glo, CTG), H1299 p53 R273H (NClH1299-inducible p53 R273H); format: cell-based; settings: Homo sapiens, NCI-H1299, 120 h, CellTiter-Glo, H1299 p53 R273H, 5 days
Outline: as §1

H1299 p53 Y220C = assay: Cell Proliferation Assay (CellTiter-Glo, CTG), H1299 p53 Y220C (NClH1299-inducible p53 Y220C); format: cell-based; settings: Homo sapiens, NCI-H1299, 120 h, CellTiter-Glo, H1299 p53 Y220C, 5 days
Outline: as §1

p53 Y220C = p53 Y220C (Homo sapiens, UniProt P04637, Y220C); assay: Luciferase Reporter Assay (Luc), p53 response element, NClH1299 cells with inducible p53 Y220C; format: cell-based; settings: luciferase reporter, NClH1299 inducible p53 Y220C, 6 hour; for Emax: 10 uM tool compound as positive control; for AC50: read-out: Luc P53 Y220C AC50
Outline: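 Doxycycline (0.5 ug/mL, 24 h) induces the mutant before a 6-hour compound treatment. Reporter activity is then quantified by One-Glo luminescence.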

| Compound | ΔTm at 100 µM [1] [°C] | Kd [2] [nM] | IC50 (H1299 p53 R273H) [nM] | IC50 (H1299 p53 Y220C) [nM] | Emax (p53 Y220C) [%] | AC50 (p53 Y220C) [nM] | ΔTm at 10 µM [1] [°C] | IC50 (NUGC3 p53 Y220C) [nM] |
| --- | --- | --- | --- | --- | --- | --- | --- | --- |
| COc1cc(C(=O)N2CCC2)ccc1NCC#Cc1nc2c(N[C@@H]3CCN(C)C[C@@H]3F)cccn2c1SC(F)(F)F [Example 87, (3S,4R)—N-[2-(3-{[4-(azetidine-1-carbonyl)-2-methoxyphenyl]amino}prop-1-yn-1-yl)-3-[(trifluoromethyl)sulfanyl]imidazo[1,2-a]pyridin-8-yl]-3-fluoro-1-methylpiperidin-4-amine] | ≥ 10 | < 10 | 8000 to 10000 | < 750 | 80 to 90 | < 750 |  | < 750 |
| COc1cc(C(=O)N(C)C)ccc1NCC#Cc1nc2c(N[C@@H]3CCN(C)C[C@@H]3F)cccn2c1SC(F)(F)F [Example 88, 4-{[3-(8-{[(3S,4R)-3-fluoro-1-methylpiperidin-4-yl]amino}-3-[(trifluoromethyl)sulfanyl]imidazo[1,2-a]pyridin-2-yl)prop-2-yn-1-yl]amino}-3-methoxy-N, N-dimethylbenzamide] | ≥ 10 | < 10 | 8000 to 10000 | < 750 | 80 to 90 | < 750 | ≥ 10 | < 750 |
| COc1cc(C(=O)NC(C)C)ccc1NCC#Cc1nc2c(N[C@@H]3CCN(C)C[C@@H]3F)cccn2c1SC(F)(F)F [Example 89, 4-{[3-(8-{[(3S,4R)-3-fluoro-1-methylpiperidin-4-yl]amino}-3-[(trifluoromethyl)sulfanyl]imidazo[1,2-a]pyridin-2-yl)prop-2-yn-1-yl]amino}-N-isopropyl-3-methoxybenzamide] | ≥ 10 | < 10 | 8000 to 10000 | < 750 | 80 to 90 | < 750 |  | < 750 |
| CNC(=O)c1ccc(NCC#Cc2nc3c(N[C@@H]4CCN(C)C[C@@H]4F)cccn3c2CC(F)(F)F)c(OC)n1 [Example 92, 5-{[3-(8-{[(3S,4R)-3-fluoro-1-methylpiperidin-4-yl]amino}-3-(2,2,2-trifluoroethyl)imidazo[1,2-a]pyridin-2-yl)prop-2-yn-1-yl]amino}-6-methoxy-N-methylpyridine-2-carboxamide] | 5 to 10 | < 10 | 5000 to 8000 | < 750 | 80 to 90 | < 750 |  | < 750 |
| CNC(=O)c1ccc(NCC#Cc2nc3c(N[C@@H]4CCN(C)C[C@@H]4F)cccn3c2SC(F)(F)F)c(OC)n1 [Example 93, 5-{[3-(8-{[(3S,4R)-3-fluoro-1-methylpiperidin-4-yl]amino}-3-[(trifluoromethyl)sulfanyl]imidazo[1,2-a]pyridin-2-yl)prop-2-yn-1-yl]amino}-6-methoxy-N-methylpyridine-2-carboxamide] | ≥ 10 | < 10 | 5000 to 8000 | < 750 | > 90 | < 750 |  | < 750 |
| CNC(=O)c1ccc(NCC#Cc2nc3c(N[C@@H]4CCN(C)C[C@@H]4F)cccn3c2SC(F)(F)F)cn1 [Example 94, 5-{[3-(8-{[(3S,4R)-3-fluoro-1-methylpiperidin-4-yl]amino}-3-[(trifluoromethyl)sulfanyl]imidazo[1,2-a]pyridin-2-yl)prop-2-yn-1-yl]amino}-N-methylpyridine-2-carboxamide] | ≥ 10 | < 10 | ≥ 10000 | < 750 | > 90 | < 750 | ≥ 10 | < 750 |
| COc1cc2c(cc1NCC#Cc1nc3c(N[C@@H]4CCN(C)C[C@@H]4F)cccn3c1SC(F)(F)F)CNC2=O [Example 96, 5-{[3-(8-{[(3S,4R)-3-fluoro-1-methylpiperidin-4-yl]amino}-3-[(trifluoromethyl)sulfanyl]imidazo[1,2-a]pyridin-2-yl)prop-2-yn-1-yl]amino}-6-methoxy-2,3-dihydroisoindol-1-one] | ≥ 10 | < 10 | 5000 to 8000 | < 750 | 80 to 90 | < 750 | ≥ 10 | < 750 |
| CNC(=O)c1ccc(NCC#Cc2nc3c(N[C@@H]4CCN(C)C[C@@H]4F)cccn3c2C(F)(F)F)c(OC)c1 [Example 97, 4-{[3-(8-{[(3S,4R)-3-fluoro-1-methylpiperidin-4-yl]amino}-3-(trifluoromethyl)imidazo [1,2-a]pyridin-2-yl)prop-2-yn-1-yl]amino}-3-methoxy-N-methylbenzamide] | 5 to 10 | 100 to 1000 | ≥ 10000 | > 3000 | < 70 | > 3000 |  | > 3000 |
| CNC(=O)c1ccc(NCC#Cc2nc3c(N[C@@H]4CCNC[C@@H]4F)cccn3c2SC(F)(F)F)c(OC)c1 [Example 100, 4-{[3-(8-{[(3S,4R)-3-fluoropiperidin-4-yl]amino}-3-[(trifluoromethyl)sulfanyl]imidazo[1,2-a]pyridin-2-yl)prop-2-yn-1-yl]amino}-3-methoxy-N-methylbenzamide] | ≥ 10 | < 10 | 5000 to 8000 | < 750 | 80 to 90 | < 750 | ≥ 10 | < 750 |

Now from value to compound, other results behind:

| ΔTm at 100 µM [1] [°C] | Kd [2] [nM] | IC50 (H1299 p53 R273H) [nM] | IC50 (H1299 p53 Y220C) [nM] | Emax (p53 Y220C) [%] | AC50 (p53 Y220C) [nM] | ΔTm at 10 µM [1] [°C] | Compound | IC50 (NUGC3 p53 Y220C) [nM] |
| --- | --- | --- | --- | --- | --- | --- | --- | --- |
| ≥ 10 | < 10 | 8000 to 10000 | < 750 | 80 to 90 | < 750 |  | COc1cc(S(C)(=O)=O)ccc1NCC#Cc1nc2c(N[C@@H]3CCN(C)C[C@@H]3F)cccn2c1SC(F)(F)F [Example 82, (3S,4R)-3-fluoro-N-(2-{3-[(4-methanesulfonyl-2-methoxyphenyl)amino]prop-1-yn-1-yl}-3-[(trifluoromethyl)sulfanyl]imidazo[1,2-a]pyridin-8-yl)-1-methylpiperidin-4-amine] | < 750 |
| ≥ 10 | < 10 | 5000 to 8000 | < 750 | 70 to 80 | < 750 | ≥ 10 | COc1cc(S(C)(=O)=O)ccc1NCC#Cc1nc2c(N[C@@H]3CCNC[C@@H]3F)cccn2c1SC(F)(F)F [Example 83] | < 750 |
| ≥ 10 | < 10 | ≥ 10000 | 1500 to 3000 | 80 to 90 | 1500 to 3000 | 5 to 10 | COc1ccc(S(C)(=O)=O)cc1NCC#Cc1nc2c(N[C@@H]3CCN(C)C[C@@H]3F)cccn2c1SC(F)(F)F [Example 84, (3S,4R)-3-fluoro-N-(2-{3-[(5-methanesulfonyl-2-methoxyphenyl)amino]prop-1-yn-1-yl}-3-[(trifluoromethyl)sulfanyl]imidazo[1,2-a]pyridin-8-yl)-1-methylpiperidin-4-amine] | 1500 to 3000 |
| ≥ 10 | < 10 | 5000 to 8000 | < 750 | 80 to 90 | < 750 |  | CCNC(=O)c1ccc(NCC#Cc2nc3c(N[C@@H]4CCN(C)C[C@@H]4F)cccn3c2SC(F)(F)F)c(OC)c1 [Example 85, N-ethyl-4-{[3-(8-{[(3S,4R)-3-fluoro-1-methylpiperidin-4-yl]amino}-3-[(trifluoromethyl)sulfanyl]imidazo[1,2-a]pyridin-2-yl)prop-2-yn-1-yl]amino}-3-methoxybenzamide] | < 750 |
| ≥ 10 | < 10 | 5000 to 8000 | < 750 | 80 to 90 | < 750 |  | COc1cc(C(=O)NC2CC2)ccc1NCC#Cc1nc2c(N[C@@H]3CCN(C)C[C@@H]3F)cccn2c1SC(F)(F)F [Example 86, N-cyclopropyl-4-{[3-(8-{[(3S,4R)-3-fluoro-1-methylpiperidin-4-yl]amino}-3-[(trifluoromethyl)sulfanyl]imidazo[1,2-a]pyridin-2-yl)prop-2-yn-1-yl]amino}-3-methoxybenzamide] | < 750 |
